Laboratory results taken from PubChem BioAssay AID686998 (Broad Institute, 2013).
Values joined by “and” are separate entries in the source; they are usually repeats but may differ in a detail not shown here. Equal values may be shown once. Records with an inconclusive call do not appear. Active and inactive are the calls of the source.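 The calls were made as follows: active = falling signal with fitted half-maximal potency no higher than twice the top valid tested dose; inconclusive = poor fit quality, or flat fit spanning -70% to -30%; inactive = potency over limit, rising signal, or flat fit inside 30%.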

test system: Cryptococcus neoformans growth, Alamar Blue, 24 h; assay: fungal growth arrest, C. neoformans – Alamar Blue, cherry-picks, dose response (AID 686998)

Row | SMILES | IC50
1 | CC=Cc1ccc2n(c1=O)C[C@@H]1[C@@H](CO)[C@H](C(=O)NCc3ccc4c(c3)OCO4)[C@H]2N1C(=O)C1CC1 (mixture of isomers) | 23.3 µM
2 | CCCC[C@@H]1CNC(=S)N1CCc1cccc(F)c1 | 1.29 µM
3 | O=C(COc1ccc2c(c1)CCC2)NCc1ccc(Cl)cc1 | 34.2 µM
4 | O=C(Nc1ccc(N2CCOCC2)cc1N1CCOCC1)c1cccc([N+](=O)[O-])c1 | 67 µM
5 | Fc1ccccc1CNC(=S)NCc1ccc(Cl)cc1 | 12.8 µM
6 | Cc1noc(C)c1NC(=O)N(C)C[C@@H]1Oc2ccc(NC(=O)NC(C)C)cc2CC(=O)N([C@@H](C)CO)C[C@@H]1C | > 70 µM (inactive)
7 | CCc1ccc(C(C)NC(=S)NCc2ccc(F)cc2)cc1 (stereo unspecified) | 7.31 µM
8 | CC(C)CC#Cc1cnc2c(c1)C(=O)N([C@@H](C)CO)C[C@@H](C)[C@@H](CN(C)C(=O)c1cccc(F)c1)O2 | 45.8 µM
9 | Cc1cc(C)c(NC(=O)CN(C2CCCCC2)C2CCCCC2)c(C)c1 | 32.9 µM
10 | CNC[C@@H]1OCCCC[C@@H](C)Oc2ccc(NC(=O)NC(C)C)cc2C(=O)N([C@@H](C)CO)C[C@H]1C | > 70 µM (inactive)
11 | CCOC(=O)c1c(-c2ccc(-c3ccccc3)cc2)csc1NC(=O)CNCCN(C)C | 15 µM
12 | Cc1c(C(=O)NC(=S)Nc2ccccc2N2CCCC2)cccc1[N+](=O)[O-] | 2.71 µM
13 | COc1ccccc1NC(=O)c1cn(C)c(=O)c2cc(OC)c(OC)cc12 | 50.1 µM
14 | CC(=O)N1[C@H](CO)[C@H](c2ccc(-c3ccccc3)cc2)[C@@H]1CNC(=O)C1CC1 | 4.92 µM
15 | CCOC(=O)NC(=S)Nc1ccc(C(C)(C)C)cc1 | 7.22 µM
16 | C[C@H]1CN([C@@H](C)CO)C(=O)CCCn2cc(nn2)CO[C@@H]1CN(C)Cc1ccc(C(F)(F)F)cc1 | 30.7 µM
17 | O=C(C1CCOCC1)N1C[C@H]2[C@@H](c3ccccc31)[C@@H](CO)N2Cc1ccccc1Cl | 1.88 µM
18 | CCCCNC(=S)N/N=C/c1ccc(C#N)cc1 | 2.73 µM
19 | Cc1ccc2c(C)c(C(=O)N3CCN(Cc4ccccn4)CC3)oc2c1C | 67.4 µM
20 | Fc1ccccc1NC(=S)NCCc1cccc(Cl)c1 | 16 µM
21 | CCOc1ccc(CNC(=S)NCc2ccc(OCC)cc2)cc1 | 8.87 µM
22 | C[C@@H]1CN([C@H](C)CO)C(=O)Cc2cc(NC(=O)NC3CCCCC3)ccc2O[C@@H]1CN(C)Cc1ccccc1 | > 70 µM (inactive)
23 | COc1cccc(C(=O)NC(=S)Nc2ccccc2N2CCOCC2)c1 | 21.2 µM
24 | Cc1ccc(/C=C2\SC(=S)N(NS(=O)(=O)c3ccc(C)cc3)C2=O)cc1 | 12.7 µM

Row | SMILES | IC50
25 | COC(=O)C1=C(C)N(Cc2ccc(Br)cc2)C(=S)NC1c1ccc(OC)cc1 (stereo unspecified) | 26 µM and 32.8 µM
26 | Cc1ccc(C2CCN(C(=S)NC3CCCCC3)C2)cc1 (stereo unspecified) | 9.63 µM
27 | O=C(NC(=S)Nc1ccccc1N1CCOCC1)c1ccccc1F | 20.9 µM
28 | C[C@@H]1CN([C@H](C)CO)C(=O)CCCn2nncc2CO[C@H]1CN(C)Cc1cccc(C(F)(F)F)c1 | 4.17 µM
29 | CC(C)COc1ccc(CNC(=S)NCc2ccccc2)cc1 | 5.43 µM
30 | Cc1cccc(C)c1NC(=O)C1(C)CCC(=O)N1CCCn1ccnc1 (stereo unspecified) | < 0.26 µM
31 | COc1cccc(NC(=O)CN2CCN(S(=O)(=O)c3ccc(C(C)C)cc3)CC2)c1 | > 70 µM (inactive)
32 | COC(=O)C1=C(C)N(Cc2ccc(F)cc2)C(=S)NC1c1cccc(Br)c1 (stereo unspecified) | 6.82 µM
33 | Cc1cc(C)c(NC(=O)CN2CCCCCC2)c(C)c1 | 0.858 µM
34 | O=C(NC(=S)Nc1ccc(Br)cc1)C1CCC1 | 15.8 µM
35 | O=C(C[C@H]1CC[C@H]2[C@@H](COC[C@H](O)CN2Cc2cc(F)cc(F)c2)O1)Nc1nccs1 | > 70 µM (inactive)
36 | CCCn1c(=S)[nH]c2cc(Cl)ccc21 | 22.9 µM
37 | COCC#Cc1cnc2c(c1)C(=O)N([C@@H](C)CO)C[C@H](C)[C@H](CN(C)C(=O)Nc1ccc(OC)cc1)O2 | > 70 µM (inactive)
38 | Cc1ccc2nc(C)c3c(c2c1)OC(C(C)(Cl)Br)C3 (stereo unspecified) | 19 µM
39 | COC(=O)C1=C(C)N(CC(C)C)C(=S)NC1c1ccc(F)cc1 (stereo unspecified) | 20.3 µM
40 | COCC(=O)Nc1ccc2c(c1)C(=O)N(C)C[C@H](OC)[C@@H](C)CN(C(=O)c1ccccc1)[C@@H](C)CO2 | > 70 µM (inactive)
41 | CN1c2ccc(Br)cc2[C@@H]2[C@@H](CCN2C(=O)Cc2cccnc2)[C@@H]1CO | 2.15 µM
42 | Cc1ccccc1S(=O)(=O)N[C@@H]1CC[C@H](CCNS(=O)(=O)c2cccc(F)c2)O[C@H]1CO | > 70 µM (inactive)
43 | C[C@@H]1CCCCO[C@@H](CN(C)C(=O)NC2CCCCC2)[C@H](C)CN([C@@H](C)CO)C(=O)c2cc(NS(=O)(=O)c3cn(C)cn3)ccc2O1 | 44.3 µM
44 | S=C(NCc1ccccc1)NCC1COc2ccccc2O1 (stereo unspecified) | 21 µM
45 | COc1ccc(C(=O)NC(=S)Nc2ccccc2N2CCCCC2)cc1[N+](=O)[O-] | 1.49 µM
46 | Cc1cccc(-c2ccc([C@@H]3[C@@H](CO)N4CCCCN(S(=O)(=O)c5ccccc5C)C[C@@H]34)cc2)c1 | 2.62 µM
47 | C[C@@H]1CN([C@H](C)CO)C(=O)c2cccc(NC(=O)c3ccncc3)c2O[C@H]1CN(C)C(=O)Nc1ccc(C(F)(F)F)cc1 | 67.4 µM
48 | Cc1ccc(C(=O)NC(=S)Nc2ccccc2N2CCCC2)cc1[N+](=O)[O-] | 0.463 µM

Row | SMILES | IC50
49 | O=C(c1cccc(F)c1)N1C[C@H]2[C@@H](c3ccccc31)[C@@H](CO)N2Cc1cocn1 | > 70 µM (inactive)
50 | C[C@H]1CN([C@@H](C)CO)C(=O)c2cc(C#CC3(O)CCCC3)cnc2O[C@@H]1CN(C)Cc1cccnc1 | > 70 µM (inactive)
51 | O=C(CCN1CCCCC1)NCC[C@@H]1CC[C@H](NC(=O)c2ccc(F)cc2)[C@@H](CO)O1 | > 70 µM (inactive)
52 | CC(NC(=O)COc1ccccc1C(C)(C)C)c1ccccc1 (stereo unspecified) | 3.83 µM
53 | COc1ccc(NC(=S)NCc2ccccc2Cl)c(OC)c1 | 43.4 µM
54 | COC(=O)C1=C(C)N(Cc2ccc(Cl)cc2)C(=S)NC1c1cccc(OC)c1 (stereo unspecified) | 6.55 µM and 8.91 µM
55 | O=C(NC(=S)NCC1COc2ccccc2O1)c1ccccc1 (stereo unspecified) | 11 µM
56 | C[C@H](NC(=O)C[C@@H]1C=C[C@H](NC(=O)CN2CCOCC2)[C@H](CO)O1)c1ccccc1 | 44.8 µM
57 | COc1ccc(NC(=O)CN2CCN(S(=O)(=O)c3ccc(C(C)C)cc3)CC2)cc1OC | 43.7 µM
58 | O=C(C[C@H]1CC[C@H]2[C@@H](COC[C@H](O)CN2C(=O)Nc2ccc3c(c2)OCO3)O1)N1CCN(c2ccccc2)CC1 | > 70 µM (inactive)
59 | S=C(NCCc1cccc(Cl)c1)NC1CCCCC1 | 6.69 µM
60 | C[C@@H]1CN([C@H](C)CO)S(=O)(=O)c2ccc(-c3ccccc3)cc2O[C@H]1CN(C)C(=O)C1CCCCC1 | 65.5 µM
61 | O=C(C1CCOCC1)N1CC[C@@H]2[C@@H](CO)Nc3ccc(Br)cc3[C@@H]21 | > 70 µM (inactive)
62 | O=C(C[C@H]1CC[C@@H]2[C@H](COC[C@H](O)CN2CC2CCOCC2)O1)NCc1ccc(Cl)cc1 | 70 µM
63 | CCC(C)c1ccc(NC(=S)N2CCN(c3ccccn3)CC2)cc1 (stereo unspecified) | 17.5 µM
64 | COC(=O)C1=C(C)N(Cc2ccc(Cl)cc2)C(=S)NC1c1ccc(Br)cc1 (stereo unspecified) | 14.7 µM
65 | O=C(NC(=S)Nc1ccccc1N1CCCC1)c1ccccc1[N+](=O)[O-] | 1.42 µM
66 | COC(=O)C1=C(C)N(Cc2ccc(F)cc2)C(=S)NC1c1ccc(F)cc1 (stereo unspecified) | 22.7 µM
67 | COC(=O)C1=C(C)N(Cc2ccccc2)C(=S)N[C@H]1c1cccc(F)c1 | 13.7 µM
68 | COc1cc2c(C(=O)N(C)c3cc(Cl)ccc3OC)cn(C)c(=O)c2cc1OC | 0.383 µM
69 | CCNC(=O)C[C@H]1CC[C@@H](NC(=O)NC2CCCCC2)[C@H](CO)O1 | 53.1 µM
70 | COc1ccc(N2CCN(C(=O)CSc3ncnc4c3cnn4-c3ccccc3C)CC2)cc1 | 53.8 µM
71 | COc1cc(NC(=O)CN2CCN(S(=O)(=O)c3ccc(C(C)C)cc3)CC2)cc(OC)c1 | 59.4 µM
72 | CCC(C)(C(=O)Nc1ccccc1C)N(C(=O)CNC(C)=O)c1ccccc1C (stereo unspecified) | < 0.26 µM

Row | SMILES | IC50
73 | CCCC(=O)N1CCC1(C)C(=O)Nc1cc(C)ccc1C (stereo unspecified) | > 70 µM (inactive)
74 | O=C(c1cccs1)N1CCN(c2nc3ccccc3s2)CC1 | > 70 µM (inactive)
75 | C/C=C/c1ccc([C@@H]2[C@@H](C#N)N(S(=O)(=O)c3cccc(F)c3)[C@@H]2CO)cc1 | 33.6 µM
76 | Cc1ccc(C(=O)Nc2ccc3ncccc3c2)cc1 | 24 µM
77 | C[C@H]1CN([C@@H](C)CO)C(=O)c2cc(-c3ccccc3)cnc2O[C@@H]1CN(C)C(=O)c1ccccn1 | 42.3 µM
78 | COc1ccc(NC(=O)c2cn(C)c(=O)c3cc(OC)c(OC)cc23)c(OC)c1 | > 70 µM (inactive)
79 | C[C@H](CO)N1C[C@H](C)[C@H](CN(C)Cc2ccc(Cl)c(Cl)c2)Oc2c(NC(=O)Nc3ccccc3)cccc2C1=O | 10.8 µM
80 | COC(=O)C1=C(C)N(Cc2ccc(Cl)cc2)C(=S)NC1c1ccccc1 (stereo unspecified) | 10.8 µM
81 | COC(=O)C1=C(C)N(Cc2ccccc2)C(=O)N[C@H]1c1cccc(F)c1 | 53.8 µM
82 | CC(=O)N[C@H]1CC[C@@H](CCNC(=O)C2CCC2)O[C@H]1CO | 50.2 µM
83 | Cc1ccccc1NC(=O)C(NC1CCCCC1)C(C)C (stereo unspecified) | 1.46 µM
84 | C[C@H](CO)N1C[C@H](C)[C@H](CN(C)S(=O)(=O)c2cn(C)cn2)Oc2ncc(/C=C/c3ccccc3)cc2C1=O | 60.1 µM
85 | COC(=O)C1=C(C)N(Cc2ccc(Br)cc2)C(=S)NC1c1cccc(Br)c1 (stereo unspecified) | 6.53 µM
86 | COc1ccc(CN(C)C[C@H]2Oc3ccc(NS(C)(=O)=O)cc3CC(=O)N([C@@H](C)CO)C[C@H]2C)cc1 | 39.9 µM
87 | Cc1ccccc1NC(=S)NC(=O)CCc1ccccc1 | 5.62 µM
88 | C[C@H](NC(=O)C[C@H]1CC[C@@H](NC(=O)Cc2ccccn2)[C@@H](CO)O1)c1ccccc1 | 47.2 µM
89 | COC(=O)C1=C(C)N(Cc2ccccc2)C(=S)NC1c1cccc(OC)c1 (stereo unspecified) | 32.5 µM
90 | Cc1ccccc1-n1ncc2c(SCC(=O)N3c4ccccc4CC3C)ncnc21 (stereo unspecified) | 0.28 µM
91 | C[C@@H]1CN([C@H](C)CO)C(=O)c2ccccc2-c2ccccc2CO[C@H]1CN(C)S(=O)(=O)c1cccc(C#N)c1 | 66.7 µM
92 | CCC(=O)N1[C@H](CO)[C@@H](c2ccc(-c3cccnc3)cc2)[C@@H]1CN(C)C(C)=O | 33.6 µM
93 | Cc1ccc(S(=O)(=O)N(C)C[C@H]2Oc3c(cccc3N(C)C)C(=O)N([C@@H](C)CO)C[C@H]2C)cc1 | > 70 µM (inactive)
94 | Cc1ccc(NC(=S)Nc2ccc(Cl)c(Cl)c2)c(OC(F)F)c1 | 20.6 µM
95 | COC(=O)C1=C(C)N(Cc2ccc(F)cc2)C(=S)NC1c1cccc(OC)c1 (stereo unspecified) | 31 µM
96 | C[C@H](CO)N1C[C@H](C)[C@H](CN(C)Cc2ccccc2F)Oc2cc(C3=CCCC3)ccc2S1(=O)=O | 36.3 µM
